Experimental data reported in patent US7371779B2, “Synergistic compositions of N-acylhomoserine lactones and 4-quinolones” (The Secretary of State for Defense Science and Technology, priority 2001, dated 2008).
Entries after “also recorded” stand apart in the source; their conditions may differ.

Tested on: murine splenocytes
Experiment: ConA mitogen-stimulated proliferation of murine splenocytes ([3H]-thymidine incorporation)
Assay type: cell-based, mouse (BALB/c)
Conditions: for inhibition of ConA induced murine splenocyte proliferation (cpm), in words: ConA 1 μg/ml, BALB/c splenocytes
Description: (§1) Proliferation was assessed by the incorporation of [^3H]-thymidine into DNA. Eight-week-old female BALB/c mice were obtained from Harlan (Bicester, Oxon, UK) and given food and water ad libitum. Splenocyte suspensions were prepared by removing the spleens and placing them into RPMI 1640 medium. The spleens were forced through 70-μm-pore-size wire gauzes using the plunger from a 5-ml syringe to produce a single cell suspension. The cells were pelleted by centrifugation, and erythrocytes were lysed with 0.017 M Tris, 0.144 M ammonium chloride buffer, pH 7.2. Leucocytes were washed twice with RPMI 1640 medium with 2% (vol/vol) foetal calf serum (FCS) and resuspended in complete cell culture medium (CTCM) consisting of RPMI 1640 medium with 5% FCS, 2 mM L-glutamine, and 5×10^−5 M 2-mercaptoethanol. HSL compounds were tested at doubling down dilutions ranging from 1 mM to 0.1 μM in a final volume of 200 μl of CTCM, containing ConA (Sigma, Poole, UK) at 1 μg/ml and 100,000 spleen cells. Following incubation for 48 h at 37° C. in 5% CO2-air, 0.25 μCi [^3H]-thymidine (Amersham) in 10 μl volume made up in RPMI 1640 medium was added and the cells were incubated for a further 24 h. Cells were harvested onto fibreglass filters with a Packard filtermate harvester. After the addition of 25 μl of MicroScint-O (Packard) to each well the filters were counted with the Packard TopCount scintillation counter.
(§2) Mitogen (Concanavalin A) induced murine splenocyte proliferation was indicated by the incorporation of tritated thymidine into the DNA in the mouse spleen cells as shown by counts per minute using the scintillation counter. The inhibitory effect of an HSL compound being tested on cell proliferation was indicated by a reduction in counts per minute.
as §1, with “70 μm pore size” for “70-μm-pore-size”, “5 ml” for “5-ml”, “The title compound was” for “HSL compounds were”, “dilutions” for “dilutions ranging from 1 mM to 0.1 μM in a final volume of 200 μl of CTCM,”, “g/ml” for “μg/ml”, “COrair,” for “CO2-air,”
as §2, with “the title” for “an HSL”

| Structure (SMILES) | effect of OdDHL alone on murine splenocyte proliferation (6.25 μM, alone) | IC50 (ConA 1 μg/ml, 100,000 spleen cells, Experiment I, read-out: IC50 in inhibition of ConA induced murine splenocyte proliferation) | inhibition of ConA induced murine splenocyte proliferation (cpm), in words (listed as OdDHL) | inhibition of ConA induced murine splenocyte proliferation (cpm), in words | inhibition of ConA induced murine splenocyte proliferation (cpm), in words (listed as 2-heptyl-3-hydroxy-4(1H)quinolone) |
| --- | --- | --- | --- | --- | --- |
| CCCCCCCCCC(=O)CC(=O)N[C@H]1CCOC1=O [Example 6] | inactive | 4 µM | inhibits splenocyte proliferation; also recorded: inhibit the proliferation |  |  |
| CCCCCCCc1[nH]c2ccccc2c(=O)c1O [PQS] |  |  |  | inhibit the proliferation | inhibits splenocyte proliferation |
